“Also recorded” adds a separate entry of the source.
Assays:
Assay type in all cases: cell-based, human
[1] = system: phosphorylation of GSK-3β at Ser9; experiment: Western blot of p-GSK-3β (Ser9) in SH-SY5Y cells; conditions: 2.5 h, control 0.33
Excerpt: GSK-3β is activated by phosphorylation at Tyr216 and is inhibited by phosphorylation at Ser9 [48]. As one of the substrates of Akt (protein kinase B), GSK-3 can inhibit Akt[49]. The inhibition of GSK-3β increases the p-Akt expression and activates the PI3K/Akt pathway, and that, in turn, phosphorylates the GSK-3β at the Ser9 site[50]^,[51]. […] As shown in Figure 6(A), LiCl greatly promoted GSK-3β phosphorylation at Ser9 (p-GSK-3β/GAPDH: 0.60 vs 0.33). […] Therefore, in cellular level, compound 16b was confirmed to have a direct effect on GSK-3β.
(§1) Figure 6. (A) The effect of 16b on phosphorylation of GSK-3β at Ser9; (B) the effect of 16b on β-catenin abundance. Protein expressions were detected by immunoblot analysis with a specific antibody. Values are reported as the mean ± SD of three independent experiments. *p < 0.05, **p < 0.01, ***p < 0.001 vs control.
SH-SY5Y cells (1 × 10^6) were seeded in 12-well plates (Corning, Los Altos, MA, USA) and incubated with compound 16b or LiCl at the indicated concentrations for 2.5 h at 37 °C in 5% CO2. At the end of incubation, cells were lysed by addition of ice-cold RIPA buffer containing a protease inhibitor cocktail. The protein quantification was determined using a BCA protein assay kit (Jiangsu KeyGEN BioTECH Co., Ltd., Nanjing, China). Cellular lysates were mixed with an equal volume of SDS (sodium dodecyl sulfate) loading buffer (Jiangsu KeyGEN BioTECH Co., Ltd., Nanjing, China) and separated by electrophoresis (Bio-rad Power Supplies Basic, Shanghai, China) in polyacrylamide gel. Proteins were transferred from acrylamide gels to nitrocellulose membranes and blocked in a blocking buffer (PBS, 5% non-fat milk) for 1.5 to 2 h at 20 °C. […] The blots were washed by TBST for 20 min and detected with ECL chemiluminescent reagent (Jiangsu KeyGEN BioTECH Co., Ltd., Nanjing, China) for 3 min. Pixel intensity was quantitated using gel imaging system (SYNGENE G:BOX/iChemi XR5, ISS, San Diego, CA, US) and Gel-Pro32 software (Media Cybernetics, Bethesda, MD, USA). […]

SH-SY5Y cells = experiment: Cytotoxicity on SH-SY5Y cells (MTT assay)
Experimental: To evaluate the neuronal cell cytotoxicity of compound 16b, we examined its cytotoxic profile on human neuroblastoma SH-SY5Y cells after incubation for 24 h by the MTT (3-(4,5-dimethylthiazol-2-yl)-2,5-diphenyltetrazolium bromide) assay.
Figure 5. Cell viability of SH-SY5Y cells exposed to compound 16b at different concentrations (range from 3.125 − 50 μM) for 24 h. Vehicle treater cells were used as control. The results were expressed as the percentage of viable cells observed after treatment with compound 16b respect to vehicle-treated cells (100%) and shown as the mean ± SD from at least three separate experiments.
SH-SY5Y cells were cultured in DMEM/F12 (Dulbecco’s modified Eagle medium and Ham’s F-12, 1:1) with 10% FBS (fetal bovine serum), 1% penicillin and 1% streptomycin under 5% CO2 atmosphere at 37 °C. SH-SY5Y cells (1 × 10^5) were seeded in 96-well plates and incubated for 24 h. Different concentrations of compound 16b were added into each well and incubated for another 24 h. The survival of cells was determined by MTT assay and the absorbance of each well were measured using a SpectraMax M5 multimode plate reader at 570 nm. Results were expressed as percentage of control and statistical analysis was performed using GraphPad Prism 5.0 (GraphPad Software Inc., San Diego, CA, USA).

β-catenin = experiment: Western blot of β-catenin abundance in SH-SY5Y cells; conditions: 2.5 h, control 0.41
Excerpt: as §1
GSK-3β is implicated in the Wnt/β-catenin signalling pathway, which plays an important role in neuronal development. GSK-3β, together with adenomatous polyposis coli (APC), Axin, and casein kinase 1 (CK1), form a ploy-protein complex that regulates the hyperphosphorylation of β-catenin. Phospho-β-catenin is recognised by ubiquitin and degraded by proteasomes. Pharmacological inhibition of GSK-3β leads to the activation and stabilisation of β-catenin, subsequently resulting in the accumulation of β-catenin in cytoplasm. The activation of Wnt/β-catenin signalling pathway can promote synaptic growth, alleviate spatial memory impairment and neurodegeneration in Alzheimer’s models. Moreover, β-catenin also plays a pivotal role in cell adhesion complexes. The combination of β-catenin and N-cadherin elevates cell-to-cell interactions which is prerequisite for neuronal differentiation[61]^,[62]. Therefore, we further evaluated the effect of 16b on β-catenin. In agreement with its GSK-3β inhibitory activity on SH-SY5Y cells, 16b increased β-catenin abundance in a dose-dependent manner. […]
SH-SY5Y cells (1 × 10^6) were seeded in 12-well plates (Corning, Los Altos, MA, USA) and incubated with compound 16b or LiCl at the indicated concentrations for 2.5 h at 37 °C in 5% CO2. […] The protein quantification was determined using a BCA protein assay kit (Jiangsu KeyGEN BioTECH Co., Ltd., Nanjing, China). […] The blots were washed by TBST for 20 min and detected with ECL chemiluminescent reagent (Jiangsu KeyGEN BioTECH Co., Ltd., Nanjing, China) for 3 min. Pixel intensity was quantitated using gel imaging system (SYNGENE G:BOX/iChemi XR5, ISS, San Diego, CA, US) and Gel-Pro32 software (Media Cybernetics, Bethesda, MD, USA). […]

SMILES: CC(C)C(=O)Nc1n[nH]c2cc(-c3cccnc3)sc12 [Compound 16b, N-(5-(pyridin-3-yl)-1H-thieno[3,2-c]pyrazol-3-yl)isobutyramide]
- p-GSK-3β/GAPDH ratio (Ser9) ([1]; 10 μM): 0.41
- p-GSK-3β/GAPDH ratio (Ser9) ([1]; 20 μM): 0.50
- non-cytotoxic concentration as fold of the IC50 value of GSK-3β inhibitory activity (SH-SY5Y cells; 50 μM versus GSK-3β IC50): > 16000 fold
- cytotoxicity on SH-SY5Y cells (SH-SY5Y cells; concentration up to 50 μM (3.125-50 μM), 24 h, MTT): no toxicity; also recorded: no significant cytotoxicity
- β-catenin/GADPH ratio (β-catenin; 5 μM): 0.54
- β-catenin/GADPH ratio (β-catenin; 10 μM): 0.64
- β-catenin/GADPH ratio (β-catenin; 20 μM): 0.76

Source: paper PMC9225722, “Synthesis and biological evaluation of thieno[3,2-c]pyrazol-3-amine derivatives as potent glycogen synthase kinase 3β inhibitors for Alzheimer’s disease” (Journal of Enzyme Inhibition and Medicinal Chemistry, 2022)
